Test results as given in patent publication US9212169B2, “Benzimidazole derivative and use thereof” (HYOGO COLLEGE OF MEDICINE, priority 2012, dated 2015).
Like-named read-outs stand apart in the source and are kept apart here.

How the values were obtained:
[1] = biological target: T1, silkworm recombinant PCA-1 (Homo sapiens, UniProt Q96Q83); experiment: Evaluation of PCA-1 inhibitory activity (demethylation of 3-methyl cytosine-containing oligo DNA, real-time PCR); type: biochemical; details: 37° C., 1 hr; for inhibition at 1 µM: test compound 1 μM; for inhibition at 10 µM: test compound 10 μM
T1 construct: made in house; host or cells: silkworm
T1 sequence (Q96Q83 1-286): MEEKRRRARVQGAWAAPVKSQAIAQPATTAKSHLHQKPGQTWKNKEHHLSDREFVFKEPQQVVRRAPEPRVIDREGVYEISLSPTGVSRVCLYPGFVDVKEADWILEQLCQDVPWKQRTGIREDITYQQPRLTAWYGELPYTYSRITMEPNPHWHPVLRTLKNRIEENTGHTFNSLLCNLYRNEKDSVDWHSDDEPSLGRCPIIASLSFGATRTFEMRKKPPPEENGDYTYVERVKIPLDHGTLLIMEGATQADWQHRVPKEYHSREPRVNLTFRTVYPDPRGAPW
Method: To an enzyme reaction solution (50 mM trishydrochloric acid buffer (pH 8.0), 2 mM ascorbic acid, 100 μM oxoglutaric acid, 40 μM ferric sulfate) containing 80 fmol 3-methyl cytosine-containing oligo DNA as a substrate were added a test compound (10 μM, 1 μM) and 4 ng silkworm recombinant PCA-1, and the mixture was incubated at 37° C. for 1 hr. After completion of the reaction, the enzyme reaction solution was 20-fold diluted with water to quench the reaction. Using 2 μL thereof, real-time PCR (Bio-Rad iQ SYBR Green Supermix) was performed in a 20 μL reaction system. The analytical curve was formed using a dilution series of the non-methylated oligoDNA. The primers used were forward primer 24 bases and reverse primer 22 bases. Reaction conditions: 95° C., 10 seconds→40 cycles of 95° C., 5 seconds, 61° C., 30 seconds, and 72° C., 15 seconds→95° C., 1 min→55° C., 1 min→55° C., 10 seconds, after which increased by 0.5° C. to 95° C. for 10 seconds→preserved at 25° C.
The degree of demethylation in the presence or absence of the test compound was compared and the inhibitory activity was evaluated.

[2] = tested on: DU145 (prostate cancer cell); experiment: Cancer cell proliferation suppressive action, DU145 (WST-1); type: cell-based; details: Homo sapiens, read-out: DU145 proliferation inhibitory activity (%)
Method: cell line used: DU145 (prostate cancer cell: Institute of Development, Aging and Cancer, Tohoku University, Cell Resource Center for Biomedical Research)
evaluation of scaffolding dependency growth suppressive action:
The cells were plated on a 96 well plate at 5×10^3 cells/well/90 μL, and cultured overnight. The test compound (10 μM) was added and, after culture for 48 hr, a 1:9 mixture of aqueous 1-methoxy-5-methylphenazinium methylsulfate (PMS) solution and 2-(4-iodophenyl)-3-(4-nitrophenyl)-5-(2,4-disulfophenyl)-2H-tetrazolium, monosodium salt (WST-1)/20 mM 4-(2-hydroxyethyl)-1-piperazineethanesulfonic acid (HEPES) solution (DOJIN) was added by 10 μL, and the absorbance was measured at 450 nm 2 hr later. As a control wavelength, 630 nm was used.

DU145 cell xenograft = experiment: Antitumor action using prostate cancer xenograft model; type: in vivo, BALB/c nu/nu mouse; details: subcutaneously administered, suspended in 0.5 w/v % carboxycellulose; tumor volume
From the text: A prostate cancer xenograft model was produced as shown below.
DU145 cells (4×10^6 cells) were mixed with BD Matrigel Basememt Membrane Matrix High Concentration (Becton, Dickinson and Company), and subcutaneously transplanted to the back of BALB/c nu/nu mouse. After transplantation, the tumor was isolated when it reached a volume of about 200 mm^3, and subcutaneously transplanted into the back of a different BALB/c nu/nu mouse. This operation was repeated three times to generate a tumor derived from DU145 cells that grow stably. A model mouse for the evaluation of the compound was prepared by finely cutting the in vivo passaged tumor into about 10 mm^3, and subcutaneously transplanting same into the back of a BALB/c nu/nu mouse.
The compound of Example 1 was suspended in 0.5 w/v % sterile carboxycellulose (Wako Pure Chemical Industries, Ltd.), and subcutaneously administered to the back. The volume of the tumor was calculated using the formula of (long diameter)×(short diameter)^2×0.5.

inhibition at 1 µM [1] [%] | inhibition at 10 µM [1] [%] | Structure (SMILES) | inhibition at 10 µM ([2]; DU-145, 48 h) [%] | antitumor action in a DU145 cell xenograft model (FIG. 1) (DU145 cell xenograft) | inhibition at 10 µM ([2]; DU-145, test compound 10 μM, culture for 48 hr) [%]
39 | 68 | Cc1nn(-c2nc3ccccc3[nH]2)c(O)c1Cc1ccc(F)cc1 [Example 25] | – | – | –
50 | 91 | Cc1nn(-c2nc3cc(C(C)(C)C)ccc3[nH]2)c(O)c1Cc1ccccc1 [Example 5, 1-[5-(1,1-dimethylethyl)-1H-benzimidazol-2-yl]-3-methyl-4-(phenylmethyl)-1H-pyrazol-5-ol] | – | – | –
43 | 81 | CCCCCCc1c(C)nn(-c2nc3cc(C)ccc3[nH]2)c1O [Example 45] | – | – | –
25 | 76 | Cc1ccc2[nH]c(-n3nc(C)c(C)c3O)nc2c1 [Example 17] | – | – | –
50 | 82 | Cc1nn(-c2nc3cc(C(F)(F)F)ccc3[nH]2)c(O)c1Cc1ccccc1 [Example 4, 3-methyl-4-(phenylmethyl)-1-(5-trifluoromethyl-1H-benzimidazol-2-yl)-1H-pyrazol-5-ol] | – | – | –
21 | 60 | Cc1nn(-c2nc3cc(Cl)ccc3[nH]2)c(O)c1Cc1ccccc1 [Example 3, 1-(5-chloro-1H-benzimidazol-2-yl)-3-methyl-4-(phenylmethyl)-1H-pyrazol-5-ol] | – | – | –
24 | 81 | Cc1ccc2[nH]c(-n3nc(C)c(Cc4ccccc4)c3O)nc2c1 [Example 1, 1-(5-methyl-1H-benzimidazol-2-yl)-3-methyl-4-(phenylmethyl)-1H-pyrazol-5-ol] | – | antitumor action | 60
49 | 81 | Cc1ccc2[nH]c(-n3nc(C)c(Cc4ccc(F)cc4)c3O)nc2c1 [Example 32] | – | – | –
36 | 82 | Cc1ccc2[nH]c(-n3nc(C)c(Cc4ccc5ccccc5c4)c3O)nc2c1 [Example 11, 3-methyl-1-(5-methyl-1H-benzimidazol-2-yl)-4-(2-naphthylmethyl)-1H-pyrazol-5-ol] | – | – | –
49 | 80 | COc1ccc(Cc2c(C)nn(-c3nc4cc(C)ccc4[nH]3)c2O)cc1 [Example 34] | – | – | –
38 | 64 | Cc1nn(-c2nc3cc(-c4ccccc4)ccc3[nH]2)c(O)c1Cc1ccccc1 [Example 37] | – | – | –
21 | 61 | Cc1ccc(-c2ccc3[nH]c(-n4nc(C)c(Cc5ccccc5)c4O)nc3c2)cc1 [Example 40] | – | – | –
47 | 81 | Cc1ccc2[nH]c(-n3nc(C)c(CC4CCCCC4)c3O)nc2c1 [Example 46] | – | – | –
-1 | 76 | Cc1cc(O)n(-c2nc3ccccc3[nH]2)n1 [Example 15] | – | – | –

Structure (SMILES) | inhibition at 1 µM [1] [%] | inhibition at 10 µM [1] [%] | inhibition at 10 µM ([2]; DU-145, 48 h) [%] | antitumor action in a DU145 cell xenograft model (FIG. 1) (DU145 cell xenograft) | inhibition at 10 µM ([2]; DU-145, test compound 10 μM, culture for 48 hr) [%]
Cc1nn(-c2nc3ccccc3[nH]2)c(O)c1C [Example 13] | 19 | 76 | 22 | – | –
Cc1ccc2[nH]c(-n3nc(C)c(Cc4ccccc4Cl)c3O)nc2c1 [Example 33] | 54 | 82 | – | – | –
Cc1ccc2[nH]c(-n3nc(C)c(-c4ccccc4)c3O)nc2c1 [Example 42] | 37 | 65 | – | – | –
Cc1nn(-c2nc3ccccc3[nH]2)c(O)c1Cc1ccccc1 [Example 14] | 35 | 80 | 45 | – | –
Cc1nn(-c2nc3ccccc3[nH]2)c(O)c1Cc1ccc(C(F)(F)F)cc1 [Example 24] | 61 | 67 | – | – | –
COc1ccc(Cc2c(C)nn(-c3nc4ccccc4[nH]3)c2O)cc1 [Example 31] | 47 | 85 | – | – | –
Cc1nn(-c2nc3cc(-c4ccc(Cl)cc4)ccc3[nH]2)c(O)c1Cc1ccccc1 [Example 35] | 25 | 77 | – | – | –
Cc1nn(-c2nc3ccccc3[nH]2)c(O)c1-c1ccccc1 [Example 18] | 27 | 74 | – | – | –
Cc1nn(-c2nc3ccccc3[nH]2)c(O)c1Cc1ccc2ccccc2c1 [Example 19] | 38 | 76 | – | – | –
